According to BindingDB's records for patent US20230365590 (Shenzhen Chipscreen Biosciences, 2023):

Biological target: Programmed cell death 1 ligand/protein 1 (Homo sapiens, UniProt Q15116+Q9NZQ7)
Test: In Vitro Inhibitory Activity Against PD-1/PD-L1 Binding
Description: The experiment process was carried out according to the flow required in the operating manual of the test reagent.The process was as follows:(1) Experiment preparation: A test compound was diluted to different concentration gradients with the dilution buffer (the highest final concentration in a 20 μL final reaction system was 10 μM). The His-PD-1 protein was diluted to 800 nM (the final concentration in the 20 final reaction system was 100 nM). The PD-L1-Fc fusion protein was diluted to 16 nM (the final concentration was 2 nM). […] All tests were conducted by use of multiple holes.(4) The fluorescence detector Tecan (Spark 10M) was used to detect the fluorescence signal of each hole. The excitation wavelength was 320 nm, and the emission wavelengths for detection were 620 nm and 665 nm, respectively. The strength of PD-1/PD-L1 binding refers to a fluorescence signal ratio Em665/Em620.(5) Calculation formula of binding inhibition rate of test compound: Inhibition rate (%)=[1−(fluorescence signal ratio of detected hole−fluorescence signal ratio of 100% inhibition negative control)]/(fluorescence signal ratio of 0% inhibition positive control−fluorescence signal ratio of 100% inhibition negative control)×100%. […]

Sequence of Programmed cell death 1 ligand/protein 1 (Q9NZQ7 whole entry): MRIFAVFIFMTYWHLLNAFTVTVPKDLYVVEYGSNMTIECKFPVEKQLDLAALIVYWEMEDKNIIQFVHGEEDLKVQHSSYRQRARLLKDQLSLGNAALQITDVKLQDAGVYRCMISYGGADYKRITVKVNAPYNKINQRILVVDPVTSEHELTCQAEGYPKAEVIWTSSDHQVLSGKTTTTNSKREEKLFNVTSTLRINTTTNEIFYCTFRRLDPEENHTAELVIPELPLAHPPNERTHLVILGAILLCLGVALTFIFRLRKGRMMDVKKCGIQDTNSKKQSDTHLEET
Sequence of Programmed cell death 1 ligand/protein 1 (Q15116 whole entry): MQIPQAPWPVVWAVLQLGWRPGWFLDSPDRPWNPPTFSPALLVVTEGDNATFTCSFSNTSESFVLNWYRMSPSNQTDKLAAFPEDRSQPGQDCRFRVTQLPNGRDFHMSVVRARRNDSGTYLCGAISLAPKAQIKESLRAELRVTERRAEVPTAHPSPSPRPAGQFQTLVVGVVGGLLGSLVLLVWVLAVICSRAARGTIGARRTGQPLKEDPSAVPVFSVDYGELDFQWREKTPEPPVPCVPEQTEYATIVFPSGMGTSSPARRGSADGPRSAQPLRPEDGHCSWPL

For `COCC12CCC(CCN3CCc4c(nc(C(=O)Nc5cccc(-c6cccc(NC(=O)c7nc8c(n7C)CCN(CCC79CCC(C(=O)O)(CC7)C9)C8)c6Cl)c5Cl)n4C)C3)(CC1)C2` [US20230365590, Compound I-6], the IC50 was 1.17 nM.
